Results taken from ChEMBL document CHEMBL4715709, “Synthesis and evaluation of anticonvulsant properties of new N-Mannich bases derived from 3-(1-phenylethyl)- and 3-benzyl-pyrrolidine-2,5-dione” (Bioorg Med Chem Lett, 2016).
Calls of active or inactive are those of the source. The calls are words filed in the database; no cut-off is given here.

Tests used:
[1] = system: Mus musculus; test: Anticonvulsant activity in mouse assessed as protection against ScPTZ-induced epilepsy at 300 mg/kg, ip measured after 4 hrs by subcutaneous pentylenetetrazole test; format: functional, organism-based
[2] = system: Mus musculus; test: Anticonvulsant activity in mouse assessed as protection against ScPTZ-induced epilepsy at 300 mg/kg, ip measured after 0.5 hrs by subcutaneous pentylenetetrazole test; format: functional, organism-based
[3] = Neurotoxicity in mouse assessed as induction of motor impairment at 300 mg/kg, ip measured after 4 hrs by rotarod test; format: toxicity, organism-based; conditions: in vivo
[4] = Neurotoxicity in mouse assessed as induction of motor impairment at 300 mg/kg, ip measured after 0.5 hrs by rotarod test; format: toxicity, organism-based; conditions: in vivo
[5] = system: Mus musculus; test: Anticonvulsant activity in mouse assessed as protection against tonic-clonic seizures at 300 mg/kg, ip measured after 0.5 hrs by maximal electroshock seizure test; format: functional, organism-based
[6] = system: Mus musculus; test: Anticonvulsant activity in mouse assessed as protection against tonic-clonic seizures at 300 mg/kg, ip measured after 4 hrs by maximal electroshock seizure test; format: functional, organism-based
[7] = Neurotoxicity in ip dosed mouse assessed as minimum dose required for induction of motor impairment measured after 0.5 hrs by rotarod test; format: toxicity, organism-based; conditions: in vivo
[8] = system: Mus musculus; test: Anticonvulsant activity in ip dosed mouse assessed as minimum dose required for protection against tonic-clonic seizures measured after 0.5 hrs by maximal electroshock seizure test; format: functional
[9] = system: Mus musculus; test: Anticonvulsant activity in ip dosed mouse assessed as minimum dose required for protection against ScPTZ-induced epilepsy measured after 4 hrs by subcutaneous pentylenetetrazole test; format: functional
[10] = system: Mus musculus; test: Anticonvulsant activity in ip dosed mouse assessed as minimum dose required for protection against ScPTZ-induced epilepsy measured after 0.5 hrs by subcutaneous pentylenetetrazole test; format: functional
[11] = system: Mus musculus; test: Anticonvulsant activity in ip dosed mouse assessed as minimum dose required for protection against tonic-clonic seizures measured after 4 hrs by maximal electroshock seizure test; format: functional
[12] = Neurotoxicity activity in ip dosed mouse assessed as induction of motor impairment by rotarod test; format: toxicity, organism-based; conditions: in vivo

Compound | Activity [1] | Activity [2] | Activity [3] | Activity [4] | Activity [5] | Activity [6] | MTD50 [7] [mg/kg] | minimum effective dose [8] [mg/kg] | MED=>50 [9] [mg/kg] | MED=>50 [10] [mg/kg] | MED=>50 [11] [mg/kg] | TD50 [12] [mg/kg]
O=C1CC(Cc2ccccc2)C(=O)N1CN1CCN(c2cccc(Cl)c2Cl)CC1 (configuration not stated) | inactive | inactive | Non-Toxic | Non-Toxic | inactive | inactive |  |  |  |  |  | 
COc1cccc(N2CCN(CN3C(=O)CC(Cc4ccccc4)C3=O)CC2)c1 (configuration not stated) | inactive | inactive | Non-Toxic | Non-Toxic | inactive | inactive |  |  |  |  |  | 
Cc1cccc(N2CCN(CN3C(=O)CC(Cc4ccccc4)C3=O)CC2)c1 (racemic) |  | inactive | Non-Toxic |  |  | inactive | 300 | 300 | 100 |  |  | 
CC(c1ccccc1)C1CC(=O)N(CN2CCN(c3ccccc3F)CC2)C1=O (configuration not stated) | inactive | inactive | Non-Toxic | Non-Toxic | inactive | inactive |  |  |  |  |  | 
CC(c1ccccc1)C1CC(=O)N(CN2CCN(c3cccc(Cl)c3Cl)CC2)C1=O (configuration not stated) | inactive | inactive | Non-Toxic | Non-Toxic | inactive | inactive |  |  |  |  |  | 
O=C1CC(Cc2ccccc2)C(=O)N1CN1CCN(c2ccccc2Cl)CC1 (racemic) |  | inactive | Non-Toxic | Non-Toxic | inactive | inactive |  |  | 100 |  |  | 
CC(c1ccccc1)C1CC(=O)N(CN2CCN(c3ccc(F)cc3)CC2)C1=O (configuration not stated) | inactive | inactive | Non-Toxic | Non-Toxic | inactive | inactive |  |  |  |  |  | 
O=C1CC(Cc2ccccc2)C(=O)N1CN1CCN(C2CCCCC2)CC1 (configuration not stated) | inactive | inactive | Non-Toxic | Non-Toxic | inactive | inactive |  |  |  |  |  | 
CC(c1ccccc1)C1CC(=O)N(CN2CCN(c3ccc(Cl)cc3)CC2)C1=O (racemic) |  |  | Non-Toxic | Non-Toxic | inactive | inactive |  |  | 300 | 300 |  | 
Cc1ccccc1N1CCN(CN2C(=O)CC(Cc3ccccc3)C2=O)CC1 (racemic) | inactive | inactive | Non-Toxic | Non-Toxic | inactive | inactive |  |  |  |  |  | 
CC(c1ccccc1)C1CC(=O)N(CN2CCN(Cc3ccccc3)CC2)C1=O (configuration not stated) | inactive | inactive | Non-Toxic | Non-Toxic | inactive | inactive |  |  |  |  |  | 
CC(c1ccccc1)C1CC(=O)N(CN2CCC(Cc3ccccc3)CC2)C1=O (racemic) | inactive | inactive | Non-Toxic | Non-Toxic | inactive |  |  |  |  |  | 300 | 
O=C1CC(Cc2ccccc2)C(=O)N1CN1CCC(Cc2ccccc2)CC1 (configuration not stated) | inactive | inactive | Non-Toxic | Non-Toxic | inactive | inactive |  |  |  |  |  | 
Cl.O=C1CC(Cc2ccccc2)C(=O)N1CN1CCN(Cc2ccccc2)CC1 (racemic) |  | inactive | Non-Toxic | Non-Toxic | inactive | inactive |  |  | 100 |  |  | 
O=C1CC(Cc2ccccc2)C(=O)N1CN1CCN(c2cccc(Cl)c2)CC1 (racemic) | inactive | inactive | Non-Toxic |  | inactive | inactive | 300 |  |  |  |  | 
COc1cccc(N2CCN(CN3C(=O)CC(C(C)c4ccccc4)C3=O)CC2)c1 (configuration not stated) | inactive | inactive | Non-Toxic | Non-Toxic | inactive | inactive |  |  |  |  |  | 
O=C1CC(Cc2ccccc2)C(=O)N1CN1CCN(c2ccccc2)CC1 (racemic) | inactive | inactive | Non-Toxic |  | inactive | inactive | 300 |  |  |  |  | 
O=C1CC(Cc2ccccc2)C(=O)N1CN1CCN(c2ccccc2F)CC1 (racemic) |  | inactive | Non-Toxic |  | inactive | inactive | 300 |  | 300 |  |  | 
CC(c1ccccc1)C1CC(=O)N(CN2CCN(c3ccccc3)CC2)C1=O (configuration not stated) | inactive | inactive | Non-Toxic | Non-Toxic | inactive | inactive |  |  |  |  |  | 
Cc1ccccc1N1CCN(CN2C(=O)CC(C(C)c3ccccc3)C2=O)CC1 (configuration not stated) | inactive | inactive | Non-Toxic | Non-Toxic | inactive | inactive |  |  |  |  |  | 
CC(c1ccccc1)C1CC(=O)N(CN2CCN(c3cccc(Cl)c3)CC2)C1=O (racemic) | inactive | inactive | Non-Toxic |  | inactive | inactive | 300 |  |  |  |  | 
Cc1cccc(N2CCN(CN3C(=O)CC(C(C)c4ccccc4)C3=O)CC2)c1 (racemic) | inactive | inactive | Non-Toxic |  | inactive | inactive | 300 |  |  |  |  | 
CC(c1ccccc1)C1CC(=O)N(CN2CCN(c3ncccn3)CC2)C1=O (racemic) |  | inactive | Non-Toxic |  | inactive | inactive | 300 |  | 300 |  |  | 
CC(c1ccccc1)C1CC(=O)N(CN2CCN(c3ccccc3Cl)CC2)C1=O (configuration not stated) | inactive | inactive | Non-Toxic | Non-Toxic | inactive | inactive |  |  |  |  |  | 
CC[C@@H](C(N)=O)N1CCCC1=O [LEVETIRACETAM] |  |  |  |  |  |  |  |  |  |  |  | > 500
COc1ccccc1N1CCN(CN2C(=O)CC(Cc3ccccc3)C2=O)CC1 (racemic) | inactive |  | Non-Toxic |  | inactive | inactive | 300 |  |  | 100 |  | 
CC(c1ccccc1)C1CC(=O)N(CN2CCN(c3ccc(Cl)c(Cl)c3)CC2)C1=O (configuration not stated) | inactive | inactive | Non-Toxic | Non-Toxic | inactive | inactive |  |  |  |  |  | 
